According to patent US20230270764A1, “COMPOSITION COMPRISING CANNABINOIDS, TERPENES, AND FLAVONOIDS FOR TREATING DEPRESSION” (priority 2020, published 2023):

Tests used:
LPS-injected mice [1] = test: Open field test in the LPS-induced model of depression; format: in vivo; conditions: for distance travelled in the open field compared with vehicle-treated groups: Example 9, 4-6 months-old male C57BL/6, i.p. 1 h before LPS 330 µg/kg, mg/kg: CBD 30, CBDA 1 or 5, CBD 30 plus THC 10, CBD 30 plus BCP 50
Text: (§1) Animals were housed 2-3/cage, kept in an air-conditioned room (23+°C) and given ad libitum access to food and water. The mice were kept in a reversed light/dark cycle, with lights off from 7 a.m. to 7 p.m. All experiments were approved by the Hebrew University of Jerusalem Ethics Committee on Animal Care and Use. In preparation for the Sucrose Preference Test, mice were habituated 2-3 times to sucrose drinking, by exposing them overnight to two graduated tubes, one containing water and the other containing sucrose solution (1%, w/v). Water and sucrose consumption were measured, and sucrose preference was computed by dividing the amount of sucrose consumed by drinking (ml sucrose) by the total drinking volume (ml of sucrose + water). One day later, the weight of the mice and the food in their cages was weighed for later analysis of food consumption and body weight changes. Groups of mice were injected intraperitoneally (i.p.) with either vehicle (cremophor, ethanol and PBS, 1:1:18 (v/v/v)) or a cannabinoid-based formulation (by itself or with another cannabinoid, or a terpene or a flavonoid). One hour later, each of these groups was injected with LPS (330 µg/kg). All injections were administered at a dose of 10 ml/kg. Four hours following the LPS injection, mice were tested in the Open-Field Test. In this test, the measured locomotor activity reflects not only motor capacity, but particularly the innate motivation for spatial exploration (which increases the distance travelled) and the anxiety level (which reduces the distance travelled, in general, and particularly the distance and time spent in the center of the open field). Each subject was placed near one of the walls of a white 50 X 50 cm^2 arena with 40 cm high walls. The distance travelled (cm), the velocity of the movement (cm/second), the time spent (seconds), distance travelled (cm) in the center area of the arena, as well as the number of entries from the perimeter area into the center of the arena were automatically measured over a 4-minute period, using EthoVision XT video tracking system and software (Noldus, The Netherlands). Twenty-four hours after the LPS injection, mice were tested in the Social Exploration Test. In this test, the subject was placed in an observation cage containing a small metal wire mesh cage with a conspecific mouse inside it. Social exploration, defined as the time of near contact between the nose of the subject and the juvenile in the small cage was recorded for 4 min, using computerized in-house software. Sucrose preference was assessed, as described above, between 8 to 27 hr post LPS injection. Body weight and weight of the food were measured two hours before the LPS injection, and again after 24 hours, and the change in body weight and food consumption were calculated.
This particular study was conducted in several experimental cohorts, and not all compounds and all measures were studied in all cohort. However, each cohort included a vehicle-treated group; therefore, the scores in each behavioral test were converted to % of mean vehicle-treated group in every individual cohort/experiment. Statistical comparisons were computed using SPSS software and consisted of one-way analyses of variance (ANOVA), followed by post-hoc comparisons with the Student-Newman-Keuls method. […]

LPS-injected mice [2] = test: Body weight change and food consumption in the LPS-induced model of depression; format: in vivo
Text: as §1
This particular study was conducted in several experimental cohorts, and not all compounds and all measures were studied in all cohort. However, each cohort included a vehicle-treated group; therefore, the scores in each behavioral test were converted to % of mean vehicle-treated group in every individual cohort/experiment. Statistical comparisons were computed using SPSS software and consisted of one-way analyses of variance (ANOVA), followed by post-hoc comparisons with the Student-Newman-Keuls method.

[3] = young adult (2.5-3 months old) male mice, acute CBD

## C=C(C)[C@@H]1CCC(C)=C[C@H]1c1c(O)cc(CCCCC)cc1O [CBD, cannabidiol]
LPS-injected mice [1]
  distance travelled in the open field compared with vehicle-treated groups: significantly increased distance travelled
LPS-injected mice [1]; Example 18, 7 months-old male mice, 3 daily i.p. injections, LPS 250 µg/kg, CLX 10 and 20 mg/kg or CBD 30 mg/kg by themselves
  distance travelled in open field vs vehicle-LPS group: did not have significant effects
LPS-injected mice [1]; Example 18, CBD 30 mg/kg by itself
  number of entries into the center area vs vehicle-LPS group: no significant effects
LPS-injected mice [1]; Example 18, celecoxib 10, 20, 30 mg/kg or CBD 30 mg/kg by themselves
  distance moved in the center of the open field vs vehicle-LPS group: no significant effects
LPS-injected mice [1]; adult (6-9 months-old) and young adult (2.5-3 months old) female mice, acute CBD, saline or LPS
  distance travelled in the open field test: None of these parameters was influenced by treatment with CBD
LPS-injected mice [1]; adult (6-9 months-old) male mice, acute CBD 30 mg/kg
  distance traveled in the open field test, LPS-injected groups: significantly attenuated the suppressive effect of LPS
LPS-injected mice [1]; [3]
  LPS-induced decrease in distance moved in the open field test: None of these parameters was influenced by treatment with CBD
LPS-injected mice [1]; young-adult male mice, CBD 30 mg/kg i.p. 3 consecutive days, last 1 hr before LPS 330 µg/kg
  attenuation of LPS effect on distance travelled in the open field test: did not reach statistical significance
LPS-injected mice [2]; Example 9, male C57BL/6, i.p. 1 h before LPS 330 µg/kg, mg/kg: CBD 30, CBD 30 plus THC 10, cannabinol 10, CBD 30 plus BCP 50
  food consumption over 24 hr vs vehicle-treated group: consumed significantly more food
LPS-injected mice [2]; adult (6-9 months-old) male mice, acute CBD
  LPS-induced body weight loss and decrease in food consumption: not influenced by CBD administration
LPS-injected mice [2]; adult and young adult female mice, acute CBD, saline or LPS
  food consumption and body weight: None of these parameters was influenced by treatment with CBD
LPS-injected mice [2]; adult female mice, acute CBD (#p<0.05)
  food consumption among the LPS-injected groups: significant difference between the CBD- and vehicle-treated group
LPS-injected mice [2]; [3]
  LPS-induced decreases in body weight and food consumption: None of these parameters was influenced by treatment with CBD
LPS-injected mice [2]; young-adult male mice, CBD 30 mg/kg i.p. 3 consecutive days
  LPS-induced body-weight loss: no effects

## C=C(C)[C@@H]1CCC(C)=C[C@H]1c1c(O)cc(CCCCC)c(C(=O)O)c1O [CBDA, Cannabidiolic acid]
LPS-injected mice [1]
  distance travelled in the open field compared with vehicle-treated groups: significantly increased distance travelled
LPS-injected mice [1]; young-adult female mice, CBDA 5 mg/kg (not 0.5 or 1)
  open field distance vs Vehicle-treated LPS-injected mice: significantly increased
LPS-injected mice [2]; young-adult female mice, CBDA 1 mg/kg
  food consumption vs Vehicle-treated LPS-injected mice: significantly increased
LPS-injected mice [2]; young-adult female mice, CBDA 0.5, 1, 5 mg/kg
  body weight reduction: no significant difference
LPS-injected mice [2]; young-adult male mice, CBDA 1, 5 mg/kg, CBD 25 and CBDA 1 mg/kg
  body weight reduction and food consumption: no significant differences

## O=c1c(O)c(-c2ccc(O)cc2)oc2cc(O)cc(O)c12 [kaempferol]
LPS-injected mice [1]; adult female mice, kaempferol 60 mg/kg by itself or together with CBD 30 mg/kg
  open-field activity compared with the Veh-treated LPS group: significant elevation in open-field activity
